The test system of the assay is human promonocytic lymphoma cells (U937). Put plainly: Microculture indicator system (MIS), MTT growth inhibition assay with bivariate serial dilutions. The format is cell-based. As to conditions: for combined results ratio, K252a only / Combined results ratio / combined results ratio, Cisplatin only: U937; for Potentiation of DNA damage by STSP as RA: U937, concentrations less than IC40, STSP as the TCI. Here is the method:
Microcultures of human promonocytic lymphoma cells (U937) (“the U937 cells”) originally obtained from the American Type Culture Collection (CRL 1593) and later grown by Dr. K. Zoon at the FDA in Bethesda, Md. were set up in a multiwell plate with serial two-fold dilutions of dThd in tissue culture growth medium (RPMI 1640 plus 10% Nurserum and antibiotics). The volume of medium per well was 100 μl and the cell number per well was about 1×10^5. The plate was incubated at 37° C. for 24 hr.
A dye, 3-[4,5-dimethylthiazol-2-yl]-2,5-diphenyl-tetrazolium bromide (MTT), was used as a chromogenic indicator of the metabolically active cell mass. Viable cells metabolize the dye and accumulate a reduced formazan product (blue color) which is solubilized for colorimetry. Mossman T, J. Immunol. Methods 5:55-63 (1983); Li L and Lau B H S, In Vitro Cell Dev. Biol. 29A:531-536 (1993). The MTT assay has been established as useful for measuring either growth inhibition or population killing. Plowman, supra. The MTT method is ideal for cells tested in suspension growth, and can also be used for some cells growing in monolayers. […] Alley, supra; Hofs, supra; Wilson J K et al., Br. J. Cancer 62:189-94 (1990); Plowman, supra.
Thirty μl of 0.5% MTT in phosphate buffered saline was added to each microculture well at the appropriate time. After incubation at 37° C. for 3 hr, 120 μl of an aqueous solution of 10 % SDS with 0.01 N HCl was added to release and dissolve formazan product. This was accomplished by overnight incubation of the plate at 37° C. After careful mixing of the microwell contents by placing the plates on an orbital shaker for 5 minutes the absorbencies were quantitated by spectrophotometry at 570 nm with a Ceres UV 900 HDI microwell plate reader (from Biotek Instruments Inc, Winooski, Vt. 05404-0998). Absorbance data was normalized to a blank well containing all reagents without cells and was collected semi-automatically.
Flat-bottom 96-well plates of tissue culture quality (Corning or Costar) were set up with two-fold serial dilutions of each agent to be tested, e.g., the RA and TCI, using a multichannel pipettor with adjustable volume, e.g., Costar or Rainin, to perform serial mixing. This set-up is diagrammed in FIG. 12. […] In each plate, a total of 59 wells then contained bivariate agent combinations, the bivariate serial dilutions.
Agents were serially diluted by serial mixing in two separate plates or series of wells, and then were combined prior to addition of a fixed volume and density of the U937 cells in a suspension calculated to deliver about 1×10^5 cells per well.
Cells were added after serial dilutions of the dThd had been dispensed. Cells were dispensed at about 10×10^4 cells per microwell to provide optimal sensitivity of detection of cell damage in subsequent calorimetric assays. […] The final volume of medium was 100 μl/well. The plates were further incubated at 37° C. for a total duration of 18-24 h. The dye MTT was used as a chromogenic indicator of the residual and metabolically active cell mass. (Described in Example 1).
In this MTT assay, normalized absorbance data was collected semi-automatically from each microculture well with a Ceres UV 900 HD1 plate reader, from Biotek Instruments Inc., Winooski, V T 05404-0998, stored in an EIA file under the Ceres 900 program, transferred in comma delimited format to a floppy diskette, and imported into a spread sheet program (Borland Quattro Pro) for data manipulations.

Turning to `COC(=O)[C@@]1(O)C[C@H]2O[C@]1(C)n1c3ccccc3c3c4c(c5c6ccccc6n2c5c31)C(=O)NC4` [K252a], the “combined results ratio, K252a only” value worked out at 1.0 (K252a only 15 H, K252a uM by row: r7 2, r8 1, r9 0.5, r10 0.25, r11 0.13, r12 0.06) and 1.0 (K252a only 20 H, K252a nM by row: r7 625, r8 313, r9 156, r10 78.1, r11 39.1, r12 19.5).

By inhibition is commonly meant the relative decrease from the control value, in per cent. For `CN(Cc1cnc2nc(N)nc(N)c2n1)c1ccc(C(=O)N[C@@H](CCC(=O)O)C(=O)O)cc1` [MTX, methotrexate], the “Potentiation of DNA damage by STSP as RA” value was “proved successful in potentiating DNA damage by STSP”. The inhibition at 0.004 µM (Homo sapiens, U-937, U937, total 20 H, STSP 16 H, MTX 4 H, MTX 4 nM, STSP nM: 200, 100, 50, 25, 12.5, 6.25, 0) is 20%. The inhibition at 0.008 µM (Homo sapiens, U-937, U937, total 20 H, STSP 16 H, MTX 4 H, MTX 8 nM, STSP nM: 200, 100, 50, 25, 12.5, 6.25, 0) turned out to be 38%. The inhibition at […] (Homo sapiens, U-937, U937, total 20 H, STSP 16 H, MTX 4 H, MTX 16 nM, STSP nM: 200, 100, 50, 25, 12.5, 6.25, 0) is 48%. Besides, the inhibition at […] (Homo sapiens, U-937, U937, total 20 H, STSP 16 H, MTX 4 H, MTX 31 nM, STSP nM: 200, 100, 50, 25, 12.5, 6.25, 0) came out at 43%. Moreover, the inhibition at […] (Homo sapiens, U-937, U937, total 20 H, STSP 16 H, MTX 4 H, MTX 63 nM, STSP nM: 200, 100, 50, 25, 12.5, 6.25, 0) was determined as 47%. Further, the inhibition at 0.125 µM (Homo sapiens, U-937, U937, total 20 H, STSP 16 H, MTX 4 H, MTX 125 nM, STSP nM: 200, 100, 50, 25, 12.5, 6.25, 0) worked out at 52%. The inhibition at […] (Homo sapiens, U-937, U937, total 20 H, STSP 16 H, MTX 4 H, MTX 250 nM, STSP nM: 200, 100, 50, 25, 12.5, 6.25, 0) is 57%. Further, the inhibition at 0.5 µM (Homo sapiens, U-937, U937, total 20 H, STSP 16 H, MTX 4 H, MTX 500 nM, STSP nM: 200, 100, 50, 25, 12.5, 6.25, 0) was determined as 62%. Besides, the inhibition at 1 µM (Homo sapiens, U-937, U937, total 20 H, STSP 16 H, MTX 4 H, MTX 1000 nM, STSP nM: 200, 100, 50, 25, 12.5, 6.25, 0) was 61%. For the same compound, where the note is “total 20 H, STSP 16 H, MTX 4 H, MTX 4 nM, STSP nM: 200, 100, 50, 25, 12.5, 6.25, 0”, the Combined results ratio is 1.0. For the same compound, the Combined results ratio (total 20 H, STSP 16 H, MTX 4 H, MTX 8 nM, STSP nM: 200, 100, 50, 25, 12.5, 6.25, 0) amounted to 1.0. Also, where the note is “total 20 H, STSP 16 H, MTX 4 H, MTX 16 nM, STSP nM: 200, 100, 50, 25, 12.5, 6.25, 0”, the Combined results ratio is 1.0. The Combined results ratio (total 20 H, STSP 16 H, MTX 4 H, MTX 31 nM, STSP nM: 200, 100, 50, 25, 12.5, 6.25, 0) worked out at 1.0. Also, the Combined results ratio (total 20 H, STSP 16 H, MTX 4 H, MTX 63 nM, STSP nM: 200, 100, 50, 25, 12.5, 6.25, 0) was found to be 1.0. Where the note is “total 20 H, STSP 16 H, MTX 4 H, MTX 125 nM, STSP nM: 200, 100, 50, 25, 12.5, 6.25, 0”, the Combined results ratio is 1.0. In addition, under “total 20 H, STSP 16 H, MTX 4 H, MTX 250 nM, STSP nM: 200, 100, 50, 25, 12.5, 6.25, 0”, the Combined results ratio came out at 1.0. Also, the Combined results ratio (total 20 H, STSP 16 H, MTX 4 H, MTX 500 nM, STSP nM: 200, 100, 50, 25, 12.5, 6.25, 0) came to 1.0. Moreover, for the setting “total 20 H, STSP 16 H, MTX 4 H, MTX 1000 nM, STSP nM: 200, 100, 50, 25, 12.5, 6.25, 0”, the Combined results ratio is reported as 1.0.

For `Nc1ccn([C@@H]2O[C@H](CO)[C@@H](O)[C@@H]2O)c(=O)n1` [ara-C, 1-β-D-arabinofuranosylcytosine], the “Potentiation of DNA damage by STSP as RA” value is reported as “proved successful in potentiating DNA damage by STSP”.

As for `Cn1c(=O)c2c(ncn2C)n(C)c1=O` [caffeine], the “Interaction with STSP (differential O/S plot)” value (caffeine 0.1-2 mM) is “strongly antagonized the action of STSP”.

Consider `N.N.[Cl][Pt][Cl]` [cisplatin], for which the “combined results ratio, Cisplatin only” value reads like this: (Cisplatin only 16 H, Cisplatin uM by row: r7 *****, r8 *****, r9 *****, r10 5.00, r11 2.50, r12 1.25) 1.0; (total 19 H, cisplatin 16 H, no STSP, cisplatin uM by row: r7 80, r8 40, r9 20, r10 10, r11 5, r12 2.5) 1.0.

The values above are taken from patent US6455593B1, “Method of dynamic retardation of cell cycle kinetics to potentiate cell damage” (priority 1995, dated 2002).
